Source: PubChem BioAssay (NCI)
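96-well plates; 48 h exposure; 5 concentrations. Endpoints by linear interpolation between flanking doses. Not reached: highest tested concentration assigned. TGI denotes the concentration required for complete inhibition of growth.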

What was measured:
Experiment in all cases: DTP human tumour cell line panel, 48 h
NCI/ADR-RES ovarian = test system: NCI/ADR-RES ovarian
HOP-62 NSCLC = test system: HOP-62 NSCLC
SW-620 colon = test system: SW-620 colon
A549 NSCLC = test system: A549 NSCLC
SR leukemia = test system: SR leukemia
NCI-H460 lung = test system: NCI-H460 lung
DU-145 prostate = test system: DU-145 prostate
CAKI-1 renal = test system: CAKI-1 renal
BT-549 breast = test system: BT-549 breast
SK-MEL-28 melanoma = test system: SK-MEL-28 melanoma

Structure (SMILES) | TGI (NCI/ADR-RES ovarian) | TGI (HOP-62 NSCLC) | TGI (SW-620 colon) | TGI (A549 NSCLC) | TGI (SR leukemia) | TGI (NCI-H460 lung) | TGI (DU-145 prostate) | TGI (CAKI-1 renal) | TGI (BT-549 breast) | TGI (SK-MEL-28 melanoma)
O=c1[nH]nc(-c2ccc3ccccc3c2)[nH]1 | > 100 µM | > 100 µM | > 100 µM | > 100 µM | > 100 µM | > 100 µM | > 100 µM | > 100 µM | > 100 µM | > 100 µM
CC1OC1C(=O)P(=O)(O)O (centres undefined) | > 100 µM | > 100 µM | > 100 µM | > 100 µM | > 100 µM | > 100 µM | > 100 µM | > 100 µM | > 100 µM | > 100 µM
Cc1ccc2[nH]c3c(c2c1)C1CCC(C(C)(C)C)CC1C1C(=O)N(c2ccc(Oc4ccccc4)cc2)C(=O)C31 (centres undefined) | > 100 µM | > 100 µM | > 100 µM | > 100 µM | 3.07 µM | > 100 µM | > 100 µM | 45.4 µM | 64.1 µM | > 100 µM
C[C@]12C(=O)OC[C@H](c3ccccc3)N1C(=O)N(Cc1ccccc1)[C@@H]2CO | > 100 µM | > 100 µM | > 100 µM | > 100 µM | > 100 µM | > 100 µM | > 100 µM | > 100 µM | > 100 µM | > 100 µM
CCN(CC)C1=Nc2ccccc2-n2ccnc2C1 | > 100 µM | > 100 µM | > 100 µM | > 100 µM | > 100 µM | > 100 µM | > 100 µM | > 100 µM | > 100 µM | > 100 µM
CN1CCN(c2n[nH]c(=O)c3c2nnn3Cc2ccccc2)CC1 | > 100 µM | > 100 µM | – | > 100 µM | > 100 µM | > 100 µM | > 100 µM | > 100 µM | > 100 µM | > 100 µM
O=C1c2cccnc2S(=O)(=O)N1c1ccc(Br)cc1 | > 100 µM | > 100 µM | > 100 µM | > 100 µM | > 100 µM | – | > 100 µM | > 100 µM | > 100 µM | > 100 µM
CCO/C(O)=c1/s/c(=C2/SC(=S)N(c3ccc(C)cc3)C2=O)n(-c2ccccc2)c1=N | > 100 µM | 81.9 µM | > 100 µM | > 100 µM | > 100 µM | > 100 µM | > 100 µM | – | > 100 µM | > 76.5 µM
O=C1C(NS(=O)(=O)c2ccccc2)=C(n2ccnc2)C(=O)c2ccccc21 | > 100 µM | > 100 µM | > 100 µM | > 100 µM | > 100 µM | > 100 µM | > 100 µM | > 100 µM | > 100 µM | > 100 µM
Cc1cc2c3c(c1)S(=O)(=O)c1cc(Cl)ccc1N3CCC2 | > 100 µM | > 100 µM | > 100 µM | > 100 µM | > 100 µM | > 100 µM | > 100 µM | > 100 µM | > 100 µM | > 100 µM
CCCCCCc1cc2cc(C(=O)Nc3nc(C45CC6CC(CC(C6)C4)C5)cs3)c(=O)oc2cc1O | 80.5 µM | 37.6 µM | > 100 µM | 54.4 µM | 26.4 µM | 50.3 µM | > 100 µM | 30.1 µM | 61 µM | > 100 µM
CCN(CC)c1c(-c2c(OC(C)C)c(=O)c2=O)c(=O)n2ccsc2c1OC(C)=O | > 100 µM | > 100 µM | > 100 µM | – | > 100 µM | > 100 µM | > 100 µM | > 100 µM | > 100 µM | > 100 µM
CCOC(=O)Cn1nnc2ccc(Nc3nc4ccccc4nc3C(=O)OCC)cc21 | > 100 µM | > 100 µM | > 100 µM | > 100 µM | > 100 µM | > 100 µM | > 100 µM | > 100 µM | > 100 µM | > 100 µM
O=[N+]([O-])C1=Cc2c(O)ccc(O)c2C2OC=CC12 (centres undefined) | 55.9 µM | 35.2 µM | > 77.4 µM | 43.4 µM | > 74.5 µM | 38.2 µM | > 54.6 µM | 25.8 µM | 27.9 µM | > 74.5 µM
COc1ccc(OC)c([N+](=O)[O-])c1-c1nc2sc(Cl)cn2c1/C=N/N=C(N)N | > 100 µM | > 100 µM | 55 µM | 58.3 µM | 34.7 µM | 56.8 µM | 42.8 µM | 38.5 µM | 38.7 µM | 33.4 µM
C[C@]12CCC(=O)C=C1CC[C@@H]1[C@@H]2CC[C@]2(C)C(=O)/C(=C/c3ccc([N+](=O)[O-])cc3)C[C@@H]12 | > 100 µM | > 100 µM | > 100 µM | > 100 µM | > 100 µM | > 100 µM | > 100 µM | > 100 µM | > 100 µM | > 100 µM
Nc1nc(N)c2cc(-c3cc4ccccc4[nH]3)ccc2n1 | > 100 µM | > 100 µM | 90.3 µM | > 100 µM | 60.5 µM | 45.8 µM | 58.8 µM | 94.9 µM | 80.3 µM | 48.7 µM
O=C(CSc1nc2ccccc2c(=O)n1-c1ccccc1)N=Nc1c(O)[nH]c2ccc(Br)cc12 | 22.9 µM | 7.07 µM | > 51.2 µM | 10.9 µM | > 26.6 µM | 41.8 µM | 3.39 µM | 3.69 µM | > 59.6 µM | 13.8 µM
CC1(N2CCOCC2)CC2C(=[N+]1[O-])CCC/C2=N/O (centres undefined) | > 100 µM | > 100 µM | > 100 µM | > 100 µM | > 100 µM | > 100 µM | – | > 100 µM | > 100 µM | > 100 µM
N#C/C=C(/NC(=O)Nc1ccccc1)N1CCCC1 | > 61.5 µM | > 35.8 µM | > 63.7 µM | > 61.3 µM | > 100 µM | > 55.4 µM | > 85.6 µM | > 59.8 µM | > 100 µM | > 83.3 µM
COc1nc2ncc([C@@H](OC(C)=O)[C@@H](COC(C)=O)OC(C)=O)nc2c(=O)n1C | > 100 µM | > 100 µM | > 100 µM | > 100 µM | > 100 µM | > 100 µM | > 100 µM | > 100 µM | > 100 µM | > 100 µM
Cn1c2ccccc2n2c(=O)c(-c3ccc(Cl)cc3)nnc12 | > 100 µM | – | > 100 µM | > 100 µM | > 100 µM | > 100 µM | > 100 µM | > 100 µM | > 100 µM | > 100 µM
